Tests used:
[1] = target: HA-GST-Rheb (GTP-γ-S loaded) activating mTORC1 (Homo sapiens (Human), UniProt Q15382); assay: Rheb-dependent in vitro kinase assay (Rheb-IVK; LanthaScreen or Western readout); assay type: biochemical; details: Rheb-dependent in vitro kinase assay; read-out: IVK IC50
Rheb = Rheb (Homo sapiens (Human), UniProt Q15382); assay: Affinity Selection Mass Spectrometry (ASMS); assay type: binding; details: affinity (R3/R0) in Affinity Selection Mass Spectrometry assay
How it was run: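 Affinity selection used 2 μM compound with 60 μM Rheb and 180 μM GDP for 30 min at room temperature. After 10 kDa ultrafiltration washes, protein was denatured in MeCN and bound compound quantified by C18 UPLC with Q-TOF MS, against a no-protein control.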

Chain of HA-GST-Rheb (GTP-γ-S loaded) activating mTORC1 (Q15382 1-181): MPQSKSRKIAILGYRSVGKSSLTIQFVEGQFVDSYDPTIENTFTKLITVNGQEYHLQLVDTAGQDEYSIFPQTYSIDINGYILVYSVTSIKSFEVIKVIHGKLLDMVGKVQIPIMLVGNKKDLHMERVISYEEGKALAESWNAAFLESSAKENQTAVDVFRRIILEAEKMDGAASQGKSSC
Chain of Rheb (Q15382 1-169 limits assumed): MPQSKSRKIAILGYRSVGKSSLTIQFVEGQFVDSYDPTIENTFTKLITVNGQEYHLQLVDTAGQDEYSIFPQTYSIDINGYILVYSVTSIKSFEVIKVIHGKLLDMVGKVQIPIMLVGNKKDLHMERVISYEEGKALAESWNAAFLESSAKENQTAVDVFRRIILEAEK

CN(C)C(=O)c1ccc(Cn2c(C(=O)O)cc3c(Br)nc(Sc4ccc(Cl)c(Cl)c4)cc32)cc1 [I-3, 4-bromo-6-(3,4-dichlorophenylthio)-1-(4-(dimethylcarbamoyl)benzyl)-1H-pyrrolo[3,2-c]pyridine-2-carboxylic acid]
IC50 [1]: 10 to 100 µM
ASMS (R3/R0) (Rheb): B (an affinity (R3/R0) between 100% and 20%)

OCc1cc2c(Cl)cc(Oc3ccccc3)cc2n1Cc1nn[nH]n1 [I-194, (1-((2H-tetrazol-5-yl)methyl)-4-chloro-6-phenoxy-1H-indol-2-yl)methanol]
IC50 [1]: 10 to 100 µM
ASMS (R3/R0) (Rheb): C (an affinity (R3/R0)<20%)

O=C(O)Cn1c(-c2ccnc3[nH]ccc23)nc2c(Sc3ccc(Cl)cc3)c(Cl)ccc21 [I-322]
IC50 [1]: > 100 µM
ASMS (R3/R0) (Rheb): C (an affinity (R3/R0)<20%)

O=C(O)c1cc2c(Oc3ccccc3)cc(Cl)cc2[nH]1 [I-175, 6-chloro-4-phenoxy-1H-indole-2-carboxylic acid]
IC50 [1]: 100 to 300 µM
ASMS (R3/R0) (Rheb): B (an affinity (R3/R0) between 100% and 20%)

4-bromo-6-(3,4-dichlorophenylthio)-1-(4-((2-hydroxyethyl)(methyl)carbamoyl)benzyl)-1H-indole-2-carboxylic acid [I-51]
IC50 [1]: < 10 µM
ASMS (R3/R0) (Rheb): B (an affinity (R3/R0) between 100% and 20%)

OCc1nc2cc(SCc3ccc(Cl)cc3)c(Cl)c(Cl)c2[nH]1 [I-356, (6,7-dichloro-5-(4-chlorobenzylthio)-1H-benzo[d]imidazol-2-yl)methanol]
IC50 [1]: 10 to 100 µM
ASMS (R3/R0) (Rheb): A (an affinity (R3/R0)>100%)

OCc1cc2c(Cl)cc(Oc3ccccc3)cc2[nH]1 [I-252, (4-chloro-6-phenoxy-1H-indol-2-yl)methanol]
IC50 [1]: 10 to 100 µM
ASMS (R3/R0) (Rheb): B (an affinity (R3/R0) between 100% and 20%)

CN(C)C(=O)c1ccc(Cn2c(C(=O)O)cc3c(Br)cc(Sc4ccc(C(F)(F)F)cc4)cc32)cc1 [I-22]
IC50 [1]: > 100 µM
ASMS (R3/R0) (Rheb): B (an affinity (R3/R0) between 100% and 20%)

Clc1cc2nc(-c3ccnc4[nH]ccc34)[nH]c2cc1Cl [I-359, 5,6-dichloro-2-(1H-pyrrolo[2,3-b]pyridin-4-yl)-1H-benzo[d]imidazole]
IC50 [1]: 10 to 100 µM
ASMS (R3/R0) (Rheb): A (an affinity (R3/R0)>100%)

O=C(O)c1cc2c(Oc3ccc(C4CCCCC4)cc3)cc(Cl)cc2[nH]1 [I-125, 6-chloro-4-(4-cyclohexylphenoxy)-1H-indole-2-carboxylic acid]
IC50 [1]: < 10 µM
ASMS (R3/R0) (Rheb): B (an affinity (R3/R0) between 100% and 20%)

OCc1cc(Sc2ccc(Cl)cc2)c2cc[nH]c2c1 [I-198, (4-(4-chlorophenylthio)-1H-indol-6-yl)methanol]
IC50 [1]: 10 to 100 µM
ASMS (R3/R0) (Rheb): B (an affinity (R3/R0) between 100% and 20%)

OCc1nc2c(OC[C@H]3CNCC[C@@H]3O)c(Cl)c(Cl)cc2[nH]1 (racemic) [I-385]
IC50 [1]: > 100 µM
ASMS (R3/R0) (Rheb): C (an affinity (R3/R0)<20%)

OCc1nc2cc(OCc3cccc(F)c3)c(Cl)cc2[nH]1 [I-484, (6-chloro-5-(3-fluorobenzyloxy)-1H-benzo[d]imidazol-2-yl)methanol]
IC50 [1]: 100 to 300 µM
ASMS (R3/R0) (Rheb): B (an affinity (R3/R0) between 100% and 20%)

OCc1nc2cc(Sc3ccc(Cl)cc3Cl)c(Cl)c(Cl)c2[nH]1 [I-358, (6,7-dichloro-5-(2,4-dichlorophenylthio)-1H-benzo[d]imidazol-2-yl)methanol]
IC50 [1]: 10 to 100 µM
ASMS (R3/R0) (Rheb): B (an affinity (R3/R0) between 100% and 20%)

O=C(O)c1cc2nc(-c3ccnc4[nH]ccc34)[nH]c2c(Cl)c1Cl [I-327]
IC50 [1]: > 100 µM
ASMS (R3/R0) (Rheb): C (an affinity (R3/R0)<20%)

N[C@@H]1CCCC[C@@H]1COc1c(Cl)c(Cl)cc2[nH]c(CO)nc12 (racemic) [I-376, (4-(((+,−)-cis-2-aminocyclohexyl)methoxy)-5,6-dichloro-1H-benzo[d]imidazol-2-yl)methanol]
IC50 [1]: 100 to 300 µM
ASMS (R3/R0) (Rheb): C (an affinity (R3/R0)<20%)

COc1ccc(Sc2cc(Cl)cc3[nH]c(CO)cc23)cc1OC [I-135]
IC50 [1]: > 100 µM
ASMS (R3/R0) (Rheb): B (an affinity (R3/R0) between 100% and 20%)

CN1CCC(CNC(=O)c2nc3cc(OCc4ccc(Cl)cc4)c(Cl)c(Cl)c3[nH]2)CC1 [I-337, 6,7-dichloro-5-(4-chlorobenzyloxy)-N-((1-methylpiperidin-4-yl)methyl)-1H-benzo[d]imidazole-2-carboxamide]
IC50 [1]: > 3 µM
ASMS (R3/R0) (Rheb): B (an affinity (R3/R0) between 100% and 20%)

CN(C)C(=O)c1ccc(Cn2c(C(=O)O)cc3ccc(Sc4ccc(Cl)c(Cl)c4)c(Br)c32)cc1 [I-6, 7-bromo-6-(3,4-dichlorophenylthio)-1-(4-(dimethylcarbamoyl)benzyl)-1H-indole-2-carboxylic acid]
IC50 [1]: < 10 µM
ASMS (R3/R0) (Rheb): B (an affinity (R3/R0) between 100% and 20%)

O=C(O)Cn1c(C(=O)O)cc2c(Oc3cc(Cl)ccc3Cl)cc(Cl)cc21 [I-162, 1-(Carboxymethyl)-6-chloro-4-(2,5-dichlorophenoxy)-1H-indole-2-carboxylic acid]
IC50 [1]: 100 to 300 µM
ASMS (R3/R0) (Rheb): B (an affinity (R3/R0) between 100% and 20%)

COC(=O)c1cc2c(Sc3ccc(Br)cc3)cc(Cl)cc2[nH]1 [I-99]
IC50 [1]: > 100 µM
ASMS (R3/R0) (Rheb): B (an affinity (R3/R0) between 100% and 20%)

O=C(O)c1ccc(Cn2c(-c3ccncc3)nc3cc(Cl)c(Cl)cc32)cc1 [I-365, 4-((5,6-dichloro-2-(pyridin-4-yl)-1H-benzo[d]imidazol-1-yl)methyl)benzoic acid]
IC50 [1]: 10 to 100 µM
ASMS (R3/R0) (Rheb): C (an affinity (R3/R0)<20%)

O=S(=O)(c1cccnc1)n1ccc2c(Sc3ccc(Cl)cc3)cc(Cl)cc21 [I-107]
IC50 [1]: > 100 µM
ASMS (R3/R0) (Rheb): C (an affinity (R3/R0)<20%)

N#Cc1ccc(-c2nc3cc(Cl)c(Cl)cc3[nH]2)cc1 [I-370, 4-(5,6-dichloro-1H-benzo[d]imidazol-2-yl)benzonitrile]
IC50 [1]: 10 to 100 µM
ASMS (R3/R0) (Rheb): B (an affinity (R3/R0) between 100% and 20%)

OCc1nc2c(OC[C@H]3CCCC[C@H]3O)c(Cl)c(Cl)cc2[nH]1 (racemic) [I-394, (+,−)-cis-2-((5,6-dichloro-2-(hydroxymethyl)-1H-benzo[d]imidazol-4-yloxy)methyl)cyclohexanol]
IC50 [1]: 10 to 100 µM
ASMS (R3/R0) (Rheb): B (an affinity (R3/R0) between 100% and 20%)

O=C(O)c1cc2c(Sc3ccc(Oc4ccc(Cl)cc4)cc3)cc(Cl)cc2[nH]1 [I-84, 6-chloro-4-(4-(4-chlorophenoxy)phenylthio)-1H-indole-2-carboxylic acid]
IC50 [1]: < 10 µM
ASMS (R3/R0) (Rheb): B (an affinity (R3/R0) between 100% and 20%)

CN(C)Cc1cc2c(Br)cc(Sc3ccc(Cl)c(Cl)c3)cc2n1Cc1ccc(C(=O)N(C)C)cc1 [I-39]
IC50 [1]: > 100 µM
ASMS (R3/R0) (Rheb): B (an affinity (R3/R0) between 100% and 20%)

O=C(NCc1ccccn1)c1cc2c(Sc3ccc(Cl)cc3)cc(Cl)cc2[nH]1 [I-149, 6-chloro-4-(4-chlorophenylthio)-N-(pyridin-2-ylmethyl)-1H-indole-2-carboxamide]
IC50 [1]: 10 to 100 µM
ASMS (R3/R0) (Rheb): B (an affinity (R3/R0) between 100% and 20%)

Clc1cc(Oc2ccccc2Cl)c2cc[nH]c2c1 [I-202, 6-chloro-4-(2-chlorophenoxy)-1H-indole]
IC50 [1]: 10 to 100 µM
ASMS (R3/R0) (Rheb): B (an affinity (R3/R0) between 100% and 20%)

c1ccc(Oc2cccc3c2nc(-c2ncco2)n3Cc2ccc(-c3nnn[nH]3)cc2)cc1 [I-421, 2-(1-(4-(1H-tetrazol-5-yl)benzyl)-4-phenoxy-1H-benzo[d]imidazol-2-yl)oxazole]
IC50 [1]: 10 to 100 µM
ASMS (R3/R0) (Rheb): C (an affinity (R3/R0)<20%)

CN(C)C(=O)c1ccc(Cn2c(C(=O)O)cc3c(Sc4cccc(OC(F)(F)F)c4)cc(Sc4cccc(OC(F)(F)F)c4)cc32)cc1 [I-19, 1-(4-(dimethylcarbamoyl)benzyl)-4,6-bis(3-(trifluoromethoxy)phenylthio)-1H-indole-2-carboxylic acid]
IC50 [1]: < 10 µM
ASMS (R3/R0) (Rheb): B (an affinity (R3/R0) between 100% and 20%)

OCc1cc2c(Sc3ccc4ccccc4c3)cc(Cl)cc2[nH]1 [I-134, (6-chloro-4-(naphthalen-2-ylthio)-1H-indol-2-yl)methanol]
IC50 [1]: 10 to 100 µM
ASMS (R3/R0) (Rheb): B (an affinity (R3/R0) between 100% and 20%)

CN(C)C(=O)c1ccc(Cn2c(C(=O)O)cc3c(-c4ccccc4)cc(Sc4ccc(Cl)c(Cl)c4)cc32)cc1 [I-8, 6-(3,4-dichlorophenylthio)-1-(4-(dimethylcarbamoyl)benzyl)-4-phenyl-1H-indole-2-carboxylic acid]
IC50 [1]: < 10 µM
ASMS (R3/R0) (Rheb): A (an affinity (R3/R0)>100%)

O=C(O)c1cc2c(Sc3ccc(OC(F)(F)F)cc3)cc(Cl)cc2[nH]1 [I-129, 6-chloro-4-(4-(trifluoromethoxy)phenylthio)-1H-indole-2-carboxylic acid]
IC50 [1]: 10 to 100 µM
ASMS (R3/R0) (Rheb): B (an affinity (R3/R0) between 100% and 20%)

Nc1cc(CCOc2c(Cl)c(Cl)cc3[nH]c(CO)nc23)ccn1 [I-382]
IC50 [1]: 100 to 300 µM
ASMS (R3/R0) (Rheb): C (an affinity (R3/R0)<20%)

OCc1cc2c(Sc3cccc4cccnc34)cc(Cl)cc2[nH]1 [I-74, (6-chloro-4-(quinolin-8-ylthio)-1H-indol-2-yl)methanol]
IC50 [1]: 10 to 100 µM
ASMS (R3/R0) (Rheb): B (an affinity (R3/R0) between 100% and 20%)

O=C(O)c1nc2c(OCc3ccc(Cl)cc3)c(Cl)c(Cl)cc2[nH]1 [I-333]
IC50 [1]: 10 to 100 µM
ASMS (R3/R0) (Rheb): A (an affinity (R3/R0)>100%)

Cc1cc(Sc2ccc(Cl)cc2)c2cc(C(=O)O)[nH]c2c1C [I-58, 4-(4-chlorophenylthio)-6,7-dimethyl-1H-indole-2-carboxylic acid]
IC50 [1]: 10 to 100 µM
ASMS (R3/R0) (Rheb): B (an affinity (R3/R0) between 100% and 20%)

Clc1ccc(Cl)c(Sc2cccc3[nH]ccc23)c1 [I-209, 4-(2,5-dichlorophenylthio)-1H-indole]
IC50 [1]: 10 to 100 µM
ASMS (R3/R0) (Rheb): B (an affinity (R3/R0) between 100% and 20%)

Reference: patent publication US11339144B2 (Navitor Pharmaceuticals, Inc., priority 2017, dated 2022)
